Measured values taken from patent publication US20120165319A1, “INHIBITORS OF INTERLEUKIN-1 BETA CONVERTING ENZYME” (VERTEX PHARMACEUTICALS INCORPORATED, priority 1995, published 2012).
Read-outs that look alike come from different tables or passages of the source.

Tests used:
IL-1β, human whole blood = test: Whole blood assay for IL-1β production; type: cell-based; conditions: read-out: Whole human blood IC50
Description: The whole blood assay is a simple method for measuring the production of IL-1b (or other cytokines) and the activity of potential inhibitors. The complexity of this assay system, with its full complement of lymphoid and inflammatory cell types, spectrum of plasma proteins and red blood cells is an ideal in vitro representation of human in vivo physiologic conditions.
Pyrogen-free syringes (˜30 cc) Pyrogen-free sterile vacuum tubes containing lyophilized Na2EDTA (4.5 mg/10 ml tube) Human whole blood sample (˜30-50 cc) 1.5 ml eppendorf tubes Test compound stock solutions (˜25 mM in DMSO or other solvent) Endotoxin-free sodium chloride solution (0.9%) and HBSS Lipopolysaccharide (Sigma; Cat. # L-3012) stock solution at 1 mg/ml in HBSS
IL-1β ELISA Kit (R & D Systems; Cat # DLB50)
TNFα ELISA Kit (R & D Systems; Cat # DTA50)
Whole Blood Assay Experimental Procedure:
Set incubator or water bath at 30° C. Aliquot 0.25 ml of blood into 1.5 ml eppendorf tubes. Note: be sure to invert the whole blood sample tubes after every two aliquots. Differences in replicates may result if the cells sediment and are not uniformly suspended. Use of a positive displacement pipette will also minimize differences between replicate aliquots.
Prepare drug dilutions in sterile pyrogen-free saline by serial dilution. A dilution series which brackets the apparent Ki for a test compound determined in an ICE inhibition assay is generally used for the primary compound screen.
Add 25 μl test compound dilution or vehicle control and gently mix the sample. Then add 5.0 μl LPS solution (250 ng/ml stocked prepared fresh: 5.0 ng/ml final concentration LPS), and mix again. Incubate the tubes at 30° C. in a water bath for 16-18 hr with occasional mixing. Alternatively, the tubes can be placed in a rotator set at 4 rpm for the same incubation period. This assay should be set up in duplicate or triplicate with the following controls: negative control—no LPS; positive control—no test inhibitor; vehicle control—the highest concentration of DMSO or compound solvent used in the experiment. Additional saline is added to all control tubes to normalize volumes for both control and experimental whole blood test samples
After the incubation period, whole blood samples are centrifuged for 10 minutes at ˜2000 rpm in the microfuge, plasma is transferred to a fresh microfuge tube and centrifuged at 1000×g to pellet residual platelets if necessary. Plasma samples may be stored frozen at −70° C. prior to assay for cytokine levels by ELISA.
We have used R & D Systems (614 McKinley Place N.E. Minneapolis, Minn. 55413) Quantikine kits for measurement of IL-1β and TNF-α. The assays are performed according to the manufacturer's directions.
We have observed IL-1β levels of ˜1-5 ng/ml in positive controls among a range of individuals. A 1:200 dilution of plasma for all samples has been sufficient in our experiments for ELISA results to fall on the linear range of the ELISA standard curves. It may be necessary to optimize standard dilutions if you observe differences in the whole blood assay. Nerad, J. L. et al., J. Leukocyte Biol., 52, pp. 687-692 (1992).

ICE = target: T1, ICE (Homo sapiens, UniProt P29466); test: Enzyme assay with UV-visible substrate (visible ICE assay, Succinyl-Tyr-Val-Ala-Asp-pNitroanilide); type: biochemical
T1 sequence (P29466 120-297 limits assumed): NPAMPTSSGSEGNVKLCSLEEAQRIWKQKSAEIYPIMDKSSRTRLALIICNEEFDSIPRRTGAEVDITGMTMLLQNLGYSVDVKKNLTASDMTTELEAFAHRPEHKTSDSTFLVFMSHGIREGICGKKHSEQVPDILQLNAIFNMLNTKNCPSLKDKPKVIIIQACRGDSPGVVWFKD
T1 sequence (P29466 317-404 limits assumed): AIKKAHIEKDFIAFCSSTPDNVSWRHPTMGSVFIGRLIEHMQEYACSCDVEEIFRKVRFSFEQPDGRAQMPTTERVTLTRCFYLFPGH
Method in brief: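 Human ICE was preincubated with inhibitor in DMSO and buffer for 15 min at room temperature, then succinyl-Tyr-Val-Ala-Asp-pNA was added. pNA release was followed at 405-603 nm for 20 min at 37° C. Ki and inhibition mode came from fitting rates to standard kinetic equations.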

[1] = Homo sapiens, * = values obtained upon reassay

Row | Compound | IC50 (IL-1β, human whole blood; Homo sapiens, Table 27) [µM] | Ki (ICE; Table 27) [µM] | other results
1 | COc1c(Cl)cc(C(=O)N[C@H]2CN(C(=O)CO)c3ccccc3N(CC(=O)N[C@H](C=O)CC(=O)O)C2=O)cc1Cl [Compound 918] | – | – | IC50 (IL-1β, human whole blood; Homo sapiens, Table 17): 1.15 µM; Ki (ICE; Table 17): 0.007 µM
2 | O=C[C@H](CC(=O)O)NC(=O)[C@@H]1CCCN2C(=O)CC[C@H](NC(=O)c3cnns3)C(=O)N12 [Compound 446] | – | – | IC50 (IL-1β, human whole blood; [1]): 3 µM; Ki (ICE; Table 5): 0.062 µM
3 | CC(=O)N(C)c1ccc(C(=O)N[C@H]2CCC(=O)N3CCC[C@@H](C(=O)N[C@H](C=O)CC(=O)O)N3C2=O)cc1 [Compound 448] | – | – | IC50 (IL-1β, human whole blood; [1]): 4 µM; Ki (ICE; Table 5): 0.13 µM
4 | O=C[C@H](CC(=O)O)NC(=O)CN1C(=O)[C@@H](NC(=O)c2nccc3ccccc23)CN(C(=O)Cc2cccnc2)c2ccccc21 [Compound 734] | 6 | 0.009 | –
5 | COc1cc(C(=O)N[C@H]2CN(C(=O)CO)c3ccccc3N(CC(=O)N[C@H](C=O)CC(=O)O)C2=O)cc(OC)c1O [Compound 732] | 1.8 | 0.005 | –
6 | CS(=O)(=O)CC(=O)N1C[C@H](NC(=O)c2nccc3ccccc23)C(=O)N(CC(=O)N[C@H](C=O)CC(=O)O)c2ccccc21 [Compound 735] | 10 | 0.006 | –
7 | CC(=O)N1C[C@H](NC(=O)c2ccccc2)C(=O)N(CC(=O)N[C@H](C=O)CC(=O)O)c2c(C)cc(C)cc21 [Compound 605o, (3S)-3-[(3S)-2-Oxo-3-benzoylamino-5-acetyl-2,3,4,5-tetrahydro-7,9-dimethyl-1H-1,5-benzodiazepin-1-acetylamino]-4-oxo-butyric acid] | – | – | IC50 (IL-1β, human whole blood; [1]): 18 µM; Ki (ICE; Table 5): 0.072 µM
8 | O=C[C@H](CC(=O)O)NC(=O)[C@@H]1CCCN2C(=O)CC[C@H](NC(=O)c3ncc[nH]3)C(=O)N12 [Compound 445] | – | – | IC50 (IL-1β, human whole blood; [1]): 4 µM; Ki (ICE; Table 5): 0.135 µM
9 | COc1cc(C(=O)N[C@H]2CN(C(=O)CO)c3ccccc3N(CC(=O)N[C@H](C=O)CC(=O)O)C2=O)ccc1O [Compound 733] | 1.5 | 0.005 | –
10 | COc1c(Cl)cc(C(=O)N[C@H]2CN(C(C)=O)c3ccccc3N(CC(=O)N[C@H](C=O)CC(=O)O)C2=O)cc1Cl [Compound 669, (3S)-3-[(3S)-2-Oxo-3-(3,5-dichloro-4-methoxybenzoyl)amino-5-acetyl-2,3,4,5-tetrahydro-1H-1,5-benzodiazepine-1-acetylamino]-4-oxo-butyric acid] | – | – | IC50 (IL-1β, human whole blood; Homo sapiens, Table 17): 10 µM; Ki (ICE; Table 17): 0.014 µM
11 | O=C[C@H](CC(=O)O)NC(=O)CN1C(=O)[C@@H](NC(=O)c2nccc3ccccc23)CN(C=O)c2ccccc21 [Compound 698, (3S)-3-[(3S)-2-oxo-3-isoquinolin-1-oylamino-5-formyl-2,3,4,5-tetrahydro-1H-1,5-benzodiazepine-1-acetylamino]-4-oxobutyric acid] | 13.5 | 0.018 | –
12 | Cc1cc(C(=O)N[C@H]2CN(C(=O)CO)c3ccccc3N(CC(=O)NC3CC(=O)OC3OCc3ccccc3)C2=O)cc(C)c1O (stereo partly drawn) [Compound 695c, (3S)-2RS-Oxo-3-(3,5-dimethyl-4-hydroxybenzoyl)amino-5-hydroxyacetyl-N-(2-benzyloxy-5-oxo-tetrahydrofuran-3-yl)-2,3,4,5-tetrahydro-1H-1,5-benzodiazepine-1-acetamide] | – | – | IC50 (IL-1β, human whole blood; Table 17): 2.5 µM
13 | CC(=O)N[C@@H](CC(=O)O)C(=O)N[C@H]1CN(C(=O)CO)c2ccccc2N(CC(=O)N[C@H](C=O)CC(=O)O)C1=O [Compound 730] | 8 | 0.09 | –
14 | CC(C)(C)OC(=O)C[C@@H](C=NOCCc1ccccc1)NC(=O)[C@@H]1CCCN2C(=O)CC[C@H](NC(=O)c3ccccc3)C(=O)N12 [Compound 307b, [3S(1S,9S)3-(9-Benzoylamino-6,10-dioxo-1,2,3,4,7,8,9,10-octahydro-6H-pyridazino-[1,2-a][1,2]diazapine-1-carboxamido)-amino]-4-oxobutanoic acid t-butyl ester, O-(2-(phenyl)ethyl)oxime] | – | – | IC50 (IL-1β, human whole blood; * = values obtained upon reassay): 14 µM; Ki (ICE; Table 5): 0.165 µM
15 | Nc1c(Cl)cc(C(=O)N[C@H]2CN(C(=O)CO)c3ccccc3N(CC(=O)N[C@H](C=O)CC(=O)O)C2=O)cc1Cl [Compound 697] | 5 | 0.0018 | –

The next lines start with results.

Row | IC50 (IL-1β, human whole blood; Homo sapiens, Table 27) [µM] | Ki (ICE; Table 27) [µM] | Compound | other results
16 | 2 | 0.0023 | COC(=O)N1C[C@H](NC(=O)c2cc(C)c(O)c(C)c2)C(=O)N(CC(=O)N[C@H](C=O)CC(=O)O)c2ccccc21 [Compound 723] | –
17 | 2.7 | 0.0035 | COCC(=O)N1C[C@H](NC(=O)c2cc(C)c(O)c(C)c2)C(=O)N(CC(=O)N[C@H](C=O)CC(=O)O)c2ccc(F)cc21 [Compound 689b-1, (3S)-3-[(3S)-2-Oxo-3-(3,5-dimethyl-4-hydroxybenzoyl)amino-5-methoxyacetyl-2,3,4,5-tetrahydro-7-fluoro-1H-1,5-benzodiazepine-1-acetylamino]-4-oxobutyric acid] | –
18 | 2.3 | 0.05 | Cc1cc(C(=O)N[C@H]2CNc3ccccc3N(CC(=O)N[C@H](C=O)CC(=O)O)C2=O)cc(C)c1O [Compound 727] | –
19 | 5 | 0.005 | CCOC(=O)N1C[C@H](NC(=O)c2cc(C)c(O)c(C)c2)C(=O)N(CC(=O)N[C@H](C=O)CC(=O)O)c2ccccc21 [Compound 722] | –
20 | 3 | 0.0037 | Cc1cc(C(=O)N[C@H]2CN(C(=O)C(C)C)c3ccccc3N(CC(=O)N[C@H](C=O)CC(=O)O)C2=O)cc(C)c1O [Compound 725] | –
21 | 1.8 | 0.002 | CCC(=O)N1C[C@H](NC(=O)c2cc(C)c(O)c(C)c2)C(=O)N(CC(=O)N[C@H](C=O)CC(=O)O)c2ccccc21 [Compound 724] | –
22 | 2.8 | 0.028 | CCOC(=O)C(=O)N1C[C@H](NC(=O)c2cc(C)c(O)c(C)c2)C(=O)N(CC(=O)N[C@H](C=O)CC(=O)O)c2ccccc21 [Compound 729] | –
23 | 5 | 0.0013 | Cc1cc(C(=O)N[C@H]2CN(C(=O)COc3ccccc3)c3ccccc3N(CC(=O)N[C@H](C=O)CC(=O)O)C2=O)cc(C)c1O [Compound 721] | –
